Reference: patent publication US12441727B2, “Tricyclic compounds as inhibitors of KRAS” (Incyte Corporation, priority 2021, dated 2025)
pIC50: −log10 of the molar value.

Assays:
KRAS G12C = KRAS G12C (Homo sapiens, UniProt P01116, G12C); test: GDP-GTP exchange assay (KRAS_G12C exchange assay); format: biochemical; conditions: bodipy-loaded KRAS G12C 2.5 nM, SOS1 150 nM, 2 hours pre-incubation with inhibitor; read-out: G12C_exchange
Procedure, shortened: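 Bodipy-GDP-loaded KRAS G12C (2.5 nM final) preincubated 2 hours with compound in 25 mM Hepes pH 7.5, 50 mM NaCl, 10 mM MgCl2, 0.01% Brij-35; exchange started with 500 uM GppNHp and 150 nM SOS1, run 2 hours at ambient temperature. Fluorescence read at 485/520 nm; IC50 by four-parameter logistic fit.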

KRAS_G12C pERK = test: Cellular pERK HTRF assay (KRAS_G12C pERK assay); format: cell-based, human; conditions: Homo sapiens, 4 h, KRAS G12C cells, 4 hours incubation with compound; read-out: G12C_pERK
Procedure, shortened: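 KRAS-mutant (G12C, G12D, G12V) and KRAS WT cancer cell lines, plated overnight in RPMI/10% FBS, were treated with compound (0.1% DMSO) at 37 °C for 4 h (G12C, G12V) or 2 h (G12D). Lysates were probed with anti-phospho-ERK1/2 HTRF antibody pair read at 665/620 nm; IC50 fitted.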

[1] = tested on: KRAS_G12C pERK in MIA PaCa-2 cells; test: Whole Blood pERK1/2 HTRF assay (KRAS_G12C WB pERK assay); format: cell-based, human; conditions: Homo sapiens, compound in whole blood, 4 hours, read-out: G12C_WB_pERK
Procedure, shortened: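 MIA PaCa-2 (KRAS G12C) cells were grown 2 days, then exposed for 4 h at 37 °C to compound spiked into whole blood (0.5% DMSO). After PBS washes and lysis, phospho-ERK1/2 was read by HTRF at 665/620 nm, and the IC50 came from a curve fit.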

[2] = Human whole blood stability; format: in vitro ADME; conditions: percent remaining at 4 hr, 1 μM, 37° C.
Experimental: The whole blood stability of the exemplified compounds was determined by LC-MS/MS. The 96-Well Flexi-Tier™ Block (Analytical Sales & Services, Inc, Flanders, NJ) is used for the incubation plate containing 1.0 mL glass vials with 0.5 mL of blood per vial (pooled gender, human whole blood sourced from BIOIVT, Hicksville, NY or similar). Blood is pre-warmed in water bath to 37° C. for 30 minutes. 96-deep well analysis plate is prepared with the addition of 100 μL ultrapure water/well. 50 μL chilled ultrapure water/well is added to 96-deep well sample collection plate and covered with a sealing mat. 1 μL of 0.5 mM compound working solution (DMSO:water) is added to the blood in incubation plate to reach final concentrations of 1 μM, mixed by pipetting thoroughly and 50 μL is transferred 50 into the T=0 wells of the sample collection plate. Blood is allowed to sit in the water for 2 minutes and then 400 μL stop solution/well is added (acetonitrile containing an internal standard). The incubation plate is placed in the Incu-Shaker CO2 Mini incubator (Benchmark Scientific, Sayreville, NJ) at 37° C. with shaking at 150 rpm. At 1, 2 and 4-hr, the blood samples are mixed thoroughly by pipetting and 50 μL is transferred into the corresponding wells of the sample collection plate. Blood is allowed to sit in the water for 2 minutes and then 400 μL of stop solution/well is added. The collection plate is sealed and vortexed at 1700 rpm for 3 minutes (VX-2500 Multi-Tube Vortexer, VWR International, Radnor, PA), and samples are then centrifuged in the collection plate at 3500 rpm for 10 minutes (Allegra X-14R Centrifuge Beckman Coulter, Indianapolis, IN). 100 μL of supernatant/well is transferred from the sample collection plate into the corresponding wells of the analysis plate. The final plate is vortexed at 1700 rpm for 1 minute and analyze samples by LC-MS/MS. The peak area ratio of the 1, 2, and 4 hr samples relative to T=0 is used to determine the percent remaining. The natural log of the percent remaining versus time is used determine a slope to calculate the compounds half-life in blood (t1/2=0.693/slope).

Chain of KRAS G12C (P01116 1-188 isoform P01116-2 G12C): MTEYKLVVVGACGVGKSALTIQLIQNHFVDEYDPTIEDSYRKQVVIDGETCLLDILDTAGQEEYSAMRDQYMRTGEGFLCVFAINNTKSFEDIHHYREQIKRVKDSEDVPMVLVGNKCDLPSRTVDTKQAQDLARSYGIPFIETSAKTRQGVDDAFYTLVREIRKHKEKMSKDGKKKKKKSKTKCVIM

With C=C(F)C(=O)N1CC[C@H](n2nnc3c(N4CC(C)(N(C)CC)C4)nc4c(F)c(-c5c(C)c(C)cc6[nH]ncc56)c(C)cc4c32)C[C@H]1CC#N (single isomer, unassigned) [Example 30] the pIC50 (KRAS G12C) was ≥ 7.30, the pIC50 (KRAS_G12C pERK) was ≥ 7.30 and the pIC50 [1] was 7.00 to 7.30. For the same molecule, the “Human whole blood stability at 4 hr” value [2] was “††† (WBS >90%)”.
For C=CC(=O)N1CC[C@H](n2nnc3c(O[C@@H](C)[C@@H]4CCCN4C)nc4c(F)c(-c5cccc6c5c(CC#N)cn6C)c(C)cc4c32)C[C@H]1C (single isomer, unassigned) [Example 31b], the pIC50 (KRAS G12C) was ≥ 7.30, the pIC50 (KRAS_G12C pERK) was ≥ 7.30 and the pIC50 [1] was 7.00 to 7.30. The “Human whole blood stability at 4 hr” value [2] was “†† (WBS >70% but ≤90%)”.
In the case of C=CC(=O)N1CCC(n2nnc3c(O[C@@H](C)[C@@H]4CCCN4C)nc4c(F)c(-c5cccc6c5c(CC#N)cn6C)c(C)cc4c32)CC1 (single isomer, unassigned) [Example 32b], the pIC50 (KRAS G12C) was ≥ 7.30, the pIC50 (KRAS_G12C pERK) was ≥ 7.30 and the pIC50 [1] was ≥ 7.30. The “Human whole blood stability at 4 hr” value [2] was “†† (WBS >70% but ≤90%)”.
For C=C(F)C(=O)N1CC[C@H](n2nnc3c(N4CC(C)(N(C)CC)C4)nc4c(F)c(-c5c(C)c(C)cc6[nH]ncc56)c(Cl)cc4c32)C[C@H]1CC#N (single isomer, unassigned) [Example 33a], the pIC50 (KRAS G12C) was ≥ 7.30, the pIC50 (KRAS_G12C pERK) was ≥ 7.30 and the pIC50 [1] was 7.00 to 7.30. The “Human whole blood stability at 4 hr” value [2] was “†† (WBS >70% but ≤90%)”.
With C=C(F)C(=O)N1CC[C@H](n2nnc3c(N4CC(C)(N(C)CC)C4)nc4c(F)c(-c5c(C)c(F)cc6[nH]ncc56)c(Cl)cc4c32)C[C@H]1CC#N (single isomer, unassigned) [Example 35a] the pIC50 (KRAS G12C) was ≥ 7.30, the pIC50 (KRAS_G12C pERK) was ≥ 7.30 and the pIC50 [1] was 7.00 to 7.30. For the same molecule, the “Human whole blood stability at 4 hr” value [2] was “††† (WBS >90%)”.
With Cc1cc2c(nc(O[C@@H](C)[C@@H]3CCCN3C)c3nnn([C@H]4CCN(C(=O)/C=C/CF)[C@H](CC#N)C4)c32)c(F)c1-c1ccc2cnn(C)c2c1 [Example 7, 2-((2S,4S)-4-(6-fluoro-8-methyl-7-(1-methyl-1H-indazol-6-yl)-4-((S)-1-((S)-1-methylpyrrolidin-2-yl)ethoxy)-1H-[1,2,3]triazolo[4,5-c]quinolin-1-yl)-1-((E)-4-fluorobut-2-enoyl)piperidin-2-yl)acetonitrile] the pIC50 (KRAS G12C) was ≥ 7.30, the pIC50 (KRAS_G12C pERK) was ≥ 7.30 and the pIC50 [1] was ≥ 7.30. For the same molecule, the “Human whole blood stability at 4 hr” value [2] was “††† (WBS >90%)”.
In the case of Cc1ccc(-c2c(C)cc3c(nc(O[C@@H](C)[C@@H]4CCCN4C)c4nnn([C@H]5CCN(C(=O)/C=C/CF)[C@H](CC#N)C5)c43)c2F)cn1 [Example 8, 2-((2S,4S)-4-(6-fluoro-8-methyl-7-(6-methylpyridin-3-yl)-4-((S)-1-((S)-1-methylpyrrolidin-2-yl)ethoxy)-1H-[1,2,3]triazolo[4,5-c]quinolin-1-yl)-1-((E)-4-fluorobut-2-enoyl)piperidin-2-yl)acetonitrile], the pIC50 (KRAS G12C) was ≥ 7.30, the pIC50 (KRAS_G12C pERK) was ≥ 7.30 and the pIC50 [1] was ≥ 7.30. For the same molecule, the “Human whole blood stability at 4 hr” value [2] was “†† (WBS >70% but ≤90%)”.
With COC/C=C/C(=O)N1CC[C@H](n2nnc3c(O[C@@H](C)[C@@H]4CCCN4C)nc4c(F)c(-c5ccc(F)cc5)c(C)cc4c32)C[C@H]1CC#N [Example 10, 2-((2S,4S)-4-(6-fluoro-7-(4-fluorophenyl)-8-methyl-4-((S)-1-((S)-1-methylpyrrolidin-2-yl)ethoxy)-1H-[1,2,3]triazolo[4,5-c]quinolin-1-yl)-1-((E)-4-methoxybut-2-enoyl)piperidin-2-yl)acetonitrile] the pIC50 (KRAS G12C) was ≥ 7.30, the pIC50 (KRAS_G12C pERK) was ≥ 7.30 and the pIC50 [1] was ≥ 7.30. For the same molecule, the “Human whole blood stability at 4 hr” value [2] was “††† (WBS >90%)”.
With Cc1cccc(-c2c(C)cc3c(nc(N4CC(C)(N(C)C)C4)c4ncn([C@H]5CCN(C(=O)/C=C/CF)[C@H](CC#N)C5)c43)c2F)c1Cl [Example 12, 2-((2S,4S)-4-(7-(2-chloro-3-methylphenyl)-4-(3-(dimethylamino)-3-methylazetidin-1-yl)-6-fluoro-8-methyl-1H-imidazo[4,5-c]quinolin-1-yl)-1-((E)-4-fluorobut-2-enoyl)piperidin-2-yl)acetonitrile] the pIC50 (KRAS G12C) was ≥ 7.30, the pIC50 (KRAS_G12C pERK) was ≥ 7.30 and the pIC50 [1] was ≥ 7.30. For the same molecule, the “Human whole blood stability at 4 hr” value [2] was “††† (WBS >90%)”.
